Tests used:
Test in all cases: Kinase profiling (radioactive filter binding)
Type in all cases: biochemical
Settings in all cases: 1 uM compound
STK33 = STK33 (Homo sapiens, UniProt Q9BYT3)
Protocol: (§1) 3A5 and 5E4 were sent to the International Centre for Kinase Profiling at the MRC Protein Phosphorylation and Ubiquitylation Unit for profiling (as described in ref ([17])). Compounds were profiled against 140 kinases using a radioactive ([^33P]ATP) filter binding assay at a concentration of 1 μM. Results were obtained as inhibition of kinase activity and are listed in Supplementary Table 2.

PIM3 = PIM3 (Homo sapiens, UniProt Q86V86)
Protocol: as §1

IRAK4 = IRAK4 (Homo sapiens, UniProt Q9NWZ3)
Chain of IRAK4 (Q9NWZ3 whole entry): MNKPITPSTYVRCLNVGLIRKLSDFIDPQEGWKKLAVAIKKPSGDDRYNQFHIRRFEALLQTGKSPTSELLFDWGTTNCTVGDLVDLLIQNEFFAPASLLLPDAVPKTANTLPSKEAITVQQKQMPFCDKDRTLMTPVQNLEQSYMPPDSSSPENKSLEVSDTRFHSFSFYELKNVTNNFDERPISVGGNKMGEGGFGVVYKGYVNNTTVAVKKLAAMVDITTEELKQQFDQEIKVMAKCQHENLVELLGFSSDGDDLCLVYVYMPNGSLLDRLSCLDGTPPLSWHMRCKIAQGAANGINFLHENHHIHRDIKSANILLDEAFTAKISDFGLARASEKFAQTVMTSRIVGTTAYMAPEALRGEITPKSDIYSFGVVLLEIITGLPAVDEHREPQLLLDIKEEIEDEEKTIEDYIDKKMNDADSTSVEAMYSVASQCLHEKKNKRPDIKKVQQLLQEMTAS
Protocol: as §1

JAK2 = JAK2 (Homo sapiens, UniProt O60674)
Protocol: as §1

PAK2 = PAK2 (Homo sapiens, UniProt Q13177)
Chain of PAK2 (Q13177 whole entry): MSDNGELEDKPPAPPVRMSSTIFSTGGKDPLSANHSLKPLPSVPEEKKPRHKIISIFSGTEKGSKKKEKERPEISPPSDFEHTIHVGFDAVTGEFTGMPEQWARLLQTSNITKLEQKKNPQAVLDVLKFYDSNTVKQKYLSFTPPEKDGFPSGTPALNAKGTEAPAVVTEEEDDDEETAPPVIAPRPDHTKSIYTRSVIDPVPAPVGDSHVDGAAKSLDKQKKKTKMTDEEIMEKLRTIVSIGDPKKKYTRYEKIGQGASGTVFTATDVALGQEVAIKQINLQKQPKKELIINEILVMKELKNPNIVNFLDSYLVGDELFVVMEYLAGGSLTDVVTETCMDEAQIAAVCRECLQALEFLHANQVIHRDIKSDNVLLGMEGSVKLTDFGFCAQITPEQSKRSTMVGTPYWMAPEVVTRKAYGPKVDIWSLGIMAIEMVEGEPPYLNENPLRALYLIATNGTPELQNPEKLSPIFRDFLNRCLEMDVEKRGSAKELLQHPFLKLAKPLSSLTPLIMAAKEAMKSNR
Protocol: as §1

ASK1 = ASK1 (Homo sapiens, UniProt Q99683)
Protocol: as §1

IRR = IRR (Homo sapiens, UniProt P14616)
Chain of IRR (P14616 27-1297): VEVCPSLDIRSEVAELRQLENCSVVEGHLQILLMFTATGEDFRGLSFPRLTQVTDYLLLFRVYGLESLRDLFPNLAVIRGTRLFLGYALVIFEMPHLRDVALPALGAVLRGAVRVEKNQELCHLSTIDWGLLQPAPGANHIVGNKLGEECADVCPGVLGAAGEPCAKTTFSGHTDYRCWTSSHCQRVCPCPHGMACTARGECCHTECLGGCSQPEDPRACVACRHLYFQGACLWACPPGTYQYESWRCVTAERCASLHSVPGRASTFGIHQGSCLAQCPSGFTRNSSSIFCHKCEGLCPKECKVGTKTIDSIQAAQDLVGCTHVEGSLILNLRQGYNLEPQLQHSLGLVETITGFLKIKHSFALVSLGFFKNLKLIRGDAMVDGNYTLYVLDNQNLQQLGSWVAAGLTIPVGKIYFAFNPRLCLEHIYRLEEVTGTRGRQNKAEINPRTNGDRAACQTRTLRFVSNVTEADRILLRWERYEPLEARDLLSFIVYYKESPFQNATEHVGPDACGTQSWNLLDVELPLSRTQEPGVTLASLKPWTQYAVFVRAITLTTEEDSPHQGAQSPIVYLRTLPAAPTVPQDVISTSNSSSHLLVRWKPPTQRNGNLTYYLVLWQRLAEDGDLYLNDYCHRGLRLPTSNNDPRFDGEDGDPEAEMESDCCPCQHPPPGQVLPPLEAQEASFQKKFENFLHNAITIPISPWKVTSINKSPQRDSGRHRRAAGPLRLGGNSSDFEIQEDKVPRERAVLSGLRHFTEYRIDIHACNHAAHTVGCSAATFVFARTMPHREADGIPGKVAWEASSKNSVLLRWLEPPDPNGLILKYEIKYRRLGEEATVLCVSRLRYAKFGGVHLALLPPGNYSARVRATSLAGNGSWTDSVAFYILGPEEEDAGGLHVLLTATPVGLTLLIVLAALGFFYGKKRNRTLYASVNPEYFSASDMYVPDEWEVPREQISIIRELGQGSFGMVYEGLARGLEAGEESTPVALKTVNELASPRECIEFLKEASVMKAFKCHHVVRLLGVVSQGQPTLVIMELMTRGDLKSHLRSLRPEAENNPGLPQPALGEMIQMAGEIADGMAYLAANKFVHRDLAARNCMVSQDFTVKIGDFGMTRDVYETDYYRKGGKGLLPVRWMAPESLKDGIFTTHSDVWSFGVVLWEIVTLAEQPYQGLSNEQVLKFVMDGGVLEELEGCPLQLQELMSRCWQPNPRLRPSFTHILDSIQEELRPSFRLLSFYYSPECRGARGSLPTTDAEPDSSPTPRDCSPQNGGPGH
Protocol: as §1

NUAK1 = NUAK1 (Homo sapiens, UniProt O60285)
Protocol: as §1

BRK = BRK (Homo sapiens, UniProt Q13882)
Protocol: as §1

EIF2AK3 = EIF2AK3 (Homo sapiens, UniProt Q9NZJ5)
Protocol: as §1

TLK1 = TLK1 (Homo sapiens, UniProt Q9UKI8)
Protocol: as §1

TrkA = TrkA (Homo sapiens, UniProt P04629)
Protocol: as §1

PIM2 = PIM2 (Homo sapiens, UniProt Q9P1W9)
Protocol: as §1

IKKe = IKKe (Homo sapiens, UniProt Q14164)
Chain of IKKe (Q14164 whole entry): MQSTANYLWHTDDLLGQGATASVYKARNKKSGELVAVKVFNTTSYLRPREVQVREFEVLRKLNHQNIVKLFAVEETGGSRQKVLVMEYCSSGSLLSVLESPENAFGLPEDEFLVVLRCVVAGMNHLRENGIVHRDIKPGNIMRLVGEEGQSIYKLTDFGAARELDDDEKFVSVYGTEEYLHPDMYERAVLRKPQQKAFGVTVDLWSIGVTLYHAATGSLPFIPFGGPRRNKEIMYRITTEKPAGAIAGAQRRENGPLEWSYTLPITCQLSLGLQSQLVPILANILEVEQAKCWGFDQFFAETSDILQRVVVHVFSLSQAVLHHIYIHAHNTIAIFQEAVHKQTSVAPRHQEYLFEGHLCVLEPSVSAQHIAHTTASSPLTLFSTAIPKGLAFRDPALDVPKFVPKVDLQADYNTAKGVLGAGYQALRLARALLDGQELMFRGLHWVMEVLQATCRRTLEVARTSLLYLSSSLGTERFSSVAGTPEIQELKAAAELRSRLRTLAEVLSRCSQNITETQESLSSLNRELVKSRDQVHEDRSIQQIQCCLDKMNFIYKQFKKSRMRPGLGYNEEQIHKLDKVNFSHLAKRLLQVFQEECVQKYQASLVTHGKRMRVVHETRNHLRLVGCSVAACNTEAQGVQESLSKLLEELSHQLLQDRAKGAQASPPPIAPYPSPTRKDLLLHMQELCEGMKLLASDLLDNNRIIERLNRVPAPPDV
Protocol: as §1

MST2 = MST2 (Homo sapiens, UniProt Q13188)
Protocol: as §1

MARK4 = MARK4 (Homo sapiens, UniProt Q96L34)
Protocol: as §1

EPH-B4 = EPH-B4 (Homo sapiens, UniProt P54760)
Chain of EPH-B4 (P54760 16-987): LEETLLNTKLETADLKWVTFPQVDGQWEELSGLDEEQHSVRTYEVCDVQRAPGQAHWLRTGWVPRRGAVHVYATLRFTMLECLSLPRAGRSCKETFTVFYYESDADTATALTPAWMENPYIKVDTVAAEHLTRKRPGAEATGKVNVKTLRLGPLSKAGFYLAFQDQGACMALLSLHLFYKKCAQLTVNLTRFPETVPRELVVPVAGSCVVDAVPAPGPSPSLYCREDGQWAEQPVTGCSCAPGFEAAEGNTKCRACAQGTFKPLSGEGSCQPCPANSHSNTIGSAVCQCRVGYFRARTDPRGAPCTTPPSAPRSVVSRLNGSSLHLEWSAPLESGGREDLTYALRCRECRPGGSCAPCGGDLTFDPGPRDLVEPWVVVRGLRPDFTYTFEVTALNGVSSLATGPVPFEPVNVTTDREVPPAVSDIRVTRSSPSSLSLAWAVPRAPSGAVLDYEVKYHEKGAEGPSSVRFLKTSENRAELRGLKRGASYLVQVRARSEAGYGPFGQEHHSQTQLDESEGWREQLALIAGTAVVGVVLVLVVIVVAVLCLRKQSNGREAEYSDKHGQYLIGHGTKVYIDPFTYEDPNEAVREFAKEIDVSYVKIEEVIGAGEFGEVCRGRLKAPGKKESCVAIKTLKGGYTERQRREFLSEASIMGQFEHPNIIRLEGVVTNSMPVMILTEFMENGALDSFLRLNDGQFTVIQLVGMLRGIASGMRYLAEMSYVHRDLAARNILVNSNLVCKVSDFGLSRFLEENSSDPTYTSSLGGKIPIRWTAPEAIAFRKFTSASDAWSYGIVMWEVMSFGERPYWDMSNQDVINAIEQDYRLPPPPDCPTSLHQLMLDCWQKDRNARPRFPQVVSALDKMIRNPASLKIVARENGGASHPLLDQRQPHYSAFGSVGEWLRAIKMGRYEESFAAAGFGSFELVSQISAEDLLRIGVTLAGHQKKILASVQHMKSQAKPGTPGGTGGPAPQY
Protocol: as §1

NEK2a = NEK2a (Homo sapiens, UniProt P51955)
Protocol: as §1

YES1 = YES1 (Homo sapiens, UniProt P07947)
Protocol: as §1

MLK3 = MLK3 (Homo sapiens, UniProt Q16584)
Protocol: as §1

TTK = TTK (Homo sapiens, UniProt P33981)
Protocol: as §1

EPH-B1 = EPH-B1 (Homo sapiens, UniProt P54762)
Protocol: as §1

ERK5 = ERK5 (Homo sapiens, UniProt Q13164)
Protocol: as §1

ERK8 = ERK8 (Homo sapiens, UniProt Q8TD08)
Chain of ERK8 (Q8TD08 whole entry): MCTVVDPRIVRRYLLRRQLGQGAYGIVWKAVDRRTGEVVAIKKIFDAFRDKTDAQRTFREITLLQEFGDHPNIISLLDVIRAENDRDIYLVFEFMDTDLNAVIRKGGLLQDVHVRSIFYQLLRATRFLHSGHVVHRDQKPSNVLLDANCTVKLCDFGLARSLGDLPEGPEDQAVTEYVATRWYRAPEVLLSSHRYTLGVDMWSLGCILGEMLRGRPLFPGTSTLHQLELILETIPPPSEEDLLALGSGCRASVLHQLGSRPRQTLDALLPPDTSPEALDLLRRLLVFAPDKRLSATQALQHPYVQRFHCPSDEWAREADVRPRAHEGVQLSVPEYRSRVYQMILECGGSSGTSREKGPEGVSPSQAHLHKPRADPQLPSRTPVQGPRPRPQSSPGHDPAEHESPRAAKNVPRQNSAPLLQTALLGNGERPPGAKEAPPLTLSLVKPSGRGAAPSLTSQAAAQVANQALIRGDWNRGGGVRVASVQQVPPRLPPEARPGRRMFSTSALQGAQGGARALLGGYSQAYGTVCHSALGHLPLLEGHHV
Protocol: as §1

PKCz = PKCz (Homo sapiens, UniProt Q05513)
Protocol: as §1

MAP4K3 = MAP4K3 (Homo sapiens, UniProt Q8IVH8)
Protocol: as §1

PKCa = PKCa (Homo sapiens, UniProt P17252)
Protocol: as §1

PRK2 = PRK2 (Homo sapiens, UniProt Q16513)
Protocol: as §1

CAMK1 = CAMK1 (Homo sapiens, UniProt Q14012)
Protocol: as §1

DYRK2 = DYRK2 (Homo sapiens, UniProt Q92630)
Protocol: as §1

SGK1 = SGK1 (Homo sapiens, UniProt O00141)
Protocol: as §1

DAPK1 = DAPK1 (Homo sapiens, UniProt P53355)
Protocol: as §1

Aurora A = Aurora A (Homo sapiens, UniProt O14965)
Protocol: as §1

PAK5 = PAK5 (Homo sapiens, UniProt Q9P286)
Protocol: as §1

CHK1 = CHK1 (Homo sapiens, UniProt O14757)
Protocol: as §1

PLK1 = PLK1 (Homo sapiens, UniProt P53350)
Protocol: as §1

BTK = BTK (Homo sapiens, UniProt Q06187)
Protocol: as §1

CAMKKb = CAMKKb (Homo sapiens, UniProt Q96RR4)
Protocol: as §1

EF2K = EF2K (Homo sapiens, UniProt O00418)
Protocol: as §1

TTBK2 = TTBK2 (Homo sapiens, UniProt Q6IQ55)
Protocol: as §1

JNK2 = JNK2 (Homo sapiens, UniProt P45984)
Protocol: as §1

SYK = SYK (Homo sapiens, UniProt P43405)
Protocol: as §1

ROCK 2 = ROCK 2 (Rattus norvegicus, UniProt Q62868)
Protocol: as §1

Question: How did the “STK33 activity in kinase profiling” value (STK33) turn out when `Cc1nc2ccc3sc(NC(=O)c4ccc5ncsc5c4)nc3c2s1` [3A5, N-(2-methyl[1,3]thiazolo[5,4-e][1,3]benzothiazol-7-yl)-1,3-benzothiazole-6-carboxamide] was run?
Answer: The value was 88.

Question: What about the “PIM3 activity in kinase profiling” value (PIM3) of the same compound?
Answer: The value was 88.

Question: What about the “IRAK4 activity in kinase profiling” value (IRAK4) of the same compound?
Answer: Its value is 46.

Question: What about the “JAK2 activity in kinase profiling” value (JAK2) of the same compound?
Answer: Its value is 112.

Question: And the “PAK2 activity in kinase profiling” value (PAK2)?
Answer: Its value is 92.

Question: What about the “ASK1 activity in kinase profiling” value (ASK1) of the same compound?
Answer: The value was 59.

Question: What about the “IRR activity in kinase profiling” value (IRR) of the same compound?
Answer: Its value is 87.

Question: What about the “NUAK1 activity in kinase profiling” value (NUAK1) of the same compound?
Answer: Its value is 73.

Question: What about the “BRK activity in kinase profiling” value (BRK) of the same compound?
Answer: The value was 97.

Question: What about the “EIF2AK3 activity in kinase profiling” value (EIF2AK3) of the same compound?
Answer: Its value is 119.

Question: And the “TLK1 activity in kinase profiling” value (TLK1)?
Answer: The value was 99.

Question: What about the “TrkA activity in kinase profiling” value (TrkA) of the same compound?
Answer: Its value is 93.

Question: And the “PIM2 activity in kinase profiling” value (PIM2)?
Answer: Its value is 78.

Question: And the “IKKe activity in kinase profiling” value (IKKe)?
Answer: The value was 107.

Question: What about the “MST2 activity in kinase profiling” value (MST2) of the same compound?
Answer: Its value is 119.

Question: What about the “MARK4 activity in kinase profiling” value (MARK4) of the same compound?
Answer: Its value is 80.

Question: What about the “EPH-B4 activity in kinase profiling” value (EPH-B4) of the same compound?
Answer: Its value is 103.

Question: What about the “NEK2a activity in kinase profiling” value (NEK2a) of the same compound?
Answer: Its value is 81.

Question: And the “YES1 activity in kinase profiling” value (YES1)?
Answer: Its value is 112.

Question: And the “MLK3 activity in kinase profiling” value (MLK3)?
Answer: The value was 49.

Question: What about the “TTK activity in kinase profiling” value (TTK) of the same compound?
Answer: The value was 56.

Question: And the “EPH-B1 activity in kinase profiling” value (EPH-B1)?
Answer: The value was 101.

Question: What about the “ERK5 activity in kinase profiling” value (ERK5) of the same compound?
Answer: Its value is 39.

Question: What about the “ERK8 activity in kinase profiling” value (ERK8) of the same compound?
Answer: Its value is 82.

Question: And the “PKCz activity in kinase profiling” value (PKCz)?
Answer: The value was 115.

Question: What about the “MAP4K3 activity in kinase profiling” value (MAP4K3) of the same compound?
Answer: The value was 125.

Question: And the “PKCa activity in kinase profiling” value (PKCa)?
Answer: Its value is 100.

Question: What about the “PRK2 activity in kinase profiling” value (PRK2) of the same compound?
Answer: The value was 95.

Question: What about the “CAMK1 activity in kinase profiling” value (CAMK1) of the same compound?
Answer: The value was 85.

Question: What about the “DYRK2 activity in kinase profiling” value (DYRK2) of the same compound?
Answer: Its value is 61.

Question: And the “SGK1 activity in kinase profiling” value (SGK1)?
Answer: The value was 85.

Question: And the “DAPK1 activity in kinase profiling” value (DAPK1)?
Answer: Its value is 73.

Question: What about the “Aurora A activity in kinase profiling” value (Aurora A) of the same compound?
Answer: Its value is 127.

Question: What about the “PAK5 activity in kinase profiling” value (PAK5) of the same compound?
Answer: The value was 75.

Question: And the “CHK1 activity in kinase profiling” value (CHK1)?
Answer: The value was 120.

Question: What about the “PLK1 activity in kinase profiling” value (PLK1) of the same compound?
Answer: The value was 110.

Question: And the “BTK activity in kinase profiling” value (BTK)?
Answer: Its value is 106.

Question: And the “CAMKKb activity in kinase profiling” value (CAMKKb)?
Answer: Its value is 98.

Question: What about the “EF2K activity in kinase profiling” value (EF2K) of the same compound?
Answer: Its value is 71.

Question: And the “TTBK2 activity in kinase profiling” value (TTBK2)?
Answer: Its value is 108.

Question: And the “JNK2 activity in kinase profiling” value (JNK2)?
Answer: The value was 100.

Question: What about the “SYK activity in kinase profiling” value (SYK) of the same compound?
Answer: Its value is 99.

Question: What about the “ROCK 2 activity in kinase profiling” value (ROCK 2) of the same compound?
Answer: The value was 68.

Question: How did the “STK33 activity in kinase profiling” value (STK33) turn out when `CSc1nc2ccc3nc(NC(=O)c4ccco4)sc3c2s1` [5E4, N-[7-(methylsulfanyl)[1,3]thiazolo[4,5-g][1,3]benzothiazol-2-yl]-2-furamide] was run?
Answer: The value was 110.

Question: What about the “PIM3 activity in kinase profiling” value (PIM3) of the same compound?
Answer: Its value is 95.

Question: And the “IRAK4 activity in kinase profiling” value (IRAK4)?
Answer: The value was 50.

Question: What about the “JAK2 activity in kinase profiling” value (JAK2) of the same compound?
Answer: The value was 105.

Question: And the “PAK2 activity in kinase profiling” value (PAK2)?
Answer: The value was 97.

Question: And the “ASK1 activity in kinase profiling” value (ASK1)?
Answer: The value was 84.

Question: And the “IRR activity in kinase profiling” value (IRR)?
Answer: The value was 92.

Question: What about the “NUAK1 activity in kinase profiling” value (NUAK1) of the same compound?
Answer: Its value is 82.

Question: And the “BRK activity in kinase profiling” value (BRK)?
Answer: Its value is 98.

Question: What about the “EIF2AK3 activity in kinase profiling” value (EIF2AK3) of the same compound?
Answer: The value was 84.

Question: What about the “TLK1 activity in kinase profiling” value (TLK1) of the same compound?
Answer: The value was 92.

Question: What about the “TrkA activity in kinase profiling” value (TrkA) of the same compound?
Answer: The value was 90.

Question: What about the “PIM2 activity in kinase profiling” value (PIM2) of the same compound?
Answer: Its value is 71.

Question: And the “IKKe activity in kinase profiling” value (IKKe)?
Answer: Its value is 102.

Question: And the “MST2 activity in kinase profiling” value (MST2)?
Answer: Its value is 129.

Question: What about the “MARK4 activity in kinase profiling” value (MARK4) of the same compound?
Answer: Its value is 87.

Question: What about the “EPH-B4 activity in kinase profiling” value (EPH-B4) of the same compound?
Answer: The value was 84.

Question: What about the “NEK2a activity in kinase profiling” value (NEK2a) of the same compound?
Answer: Its value is 83.

Question: What about the “YES1 activity in kinase profiling” value (YES1) of the same compound?
Answer: Its value is 110.

Question: And the “MLK3 activity in kinase profiling” value (MLK3)?
Answer: Its value is 18.

Question: What about the “TTK activity in kinase profiling” value (TTK) of the same compound?
Answer: Its value is 60.

Question: And the “EPH-B1 activity in kinase profiling” value (EPH-B1)?
Answer: The value was 93.

Question: What about the “ERK5 activity in kinase profiling” value (ERK5) of the same compound?
Answer: The value was 39.

Question: What about the “ERK8 activity in kinase profiling” value (ERK8) of the same compound?
Answer: Its value is 83.

Question: And the “PKCz activity in kinase profiling” value (PKCz)?
Answer: The value was 103.

Question: And the “MAP4K3 activity in kinase profiling” value (MAP4K3)?
Answer: Its value is 121.

Question: And the “PKCa activity in kinase profiling” value (PKCa)?
Answer: Its value is 81.

Question: What about the “PRK2 activity in kinase profiling” value (PRK2) of the same compound?
Answer: The value was 88.

Question: And the “CAMK1 activity in kinase profiling” value (CAMK1)?
Answer: The value was 106.

Question: What about the “DYRK2 activity in kinase profiling” value (DYRK2) of the same compound?
Answer: The value was 9.

Question: What about the “SGK1 activity in kinase profiling” value (SGK1) of the same compound?
Answer: Its value is 88.

Question: And the “DAPK1 activity in kinase profiling” value (DAPK1)?
Answer: The value was 76.

Question: And the “Aurora A activity in kinase profiling” value (Aurora A)?
Answer: The value was 107.

Question: And the “PAK5 activity in kinase profiling” value (PAK5)?
Answer: The value was 81.

Question: And the “CHK1 activity in kinase profiling” value (CHK1)?
Answer: The value was 111.

Question: And the “PLK1 activity in kinase profiling” value (PLK1)?
Answer: The value was 102.

Question: And the “BTK activity in kinase profiling” value (BTK)?
Answer: The value was 105.

Question: What about the “CAMKKb activity in kinase profiling” value (CAMKKb) of the same compound?
Answer: Its value is 91.

Question: What about the “EF2K activity in kinase profiling” value (EF2K) of the same compound?
Answer: The value was 79.

Question: And the “TTBK2 activity in kinase profiling” value (TTBK2)?
Answer: The value was 103.

Question: And the “JNK2 activity in kinase profiling” value (JNK2)?
Answer: The value was 107.

Question: And the “SYK activity in kinase profiling” value (SYK)?
Answer: The value was 102.

Question: What about the “ROCK 2 activity in kinase profiling” value (ROCK 2) of the same compound?
Answer: The value was 96.

From PMC4730229, “Benzobisthiazoles Represent a Novel Scaffold for Kinase Inhibitors of CLK Family Members” (Biochemistry, 2015)
